O=c1cc(-c2ccc(O)cc2)oc2cc(O)cc(O)c12
solubility (mole fraction) (in acetone, 288.2 K): 0.000338
solubility (mole fraction) (in acetone, 298.2 K): 0.000367
solubility (mole fraction) (in acetone, 308.2 K): 0.000451
solubility (mole fraction) (in acetone, 318.2 K): 0.00054
solubility (mole fraction) (in acetone, 328.2 K): 0.000654
solubility (mole fraction) (in ethanol, 288.2 K): 0.000244
solubility (mole fraction) (in ethanol, 298.2 K): 0.000295
solubility (mole fraction) (in ethanol, 308.2 K): 0.000346
solubility (mole fraction) (in ethanol, 318.2 K): 0.000397
solubility (mole fraction) (in ethanol, 328.2 K): 0.000449
solubility (mole fraction) (in ethyl acetate, 288.2 K): 0.000172
solubility (mole fraction) (in ethyl acetate, 298.2 K): 0.000239
solubility (mole fraction) (in ethyl acetate, 308.2 K): 0.000323
solubility (mole fraction) (in ethyl acetate, 318.2 K): 0.000442
solubility (mole fraction) (in ethyl acetate, 328.2 K): 0.000548
solubility (mole fraction) (in methanol, 288.2 K): 0.000118
solubility (mole fraction) (in methanol, 298.2 K): 0.000148
solubility (mole fraction) (in methanol, 308.2 K): 0.000179
solubility (mole fraction) (in methanol, 318.2 K): 0.000219
solubility (mole fraction) (in methanol, 328.2 K): 0.000254
solubility (mole fraction) (in n-butanol, 288.2 K): 0.000478
solubility (mole fraction) (in n-butanol, 298.2 K): 0.000568
solubility (mole fraction) (in n-butanol, 308.2 K): 0.0007
solubility (mole fraction) (in n-butanol, 318.2 K): 0.000822
solubility (mole fraction) (in n-butanol, 328.2 K): 0.000934
solubility (mole fraction) (in n-propanol, 288.2 K): 0.000343
solubility (mole fraction) (in n-propanol, 298.2 K): 0.000401
solubility (mole fraction) (in n-propanol, 308.2 K): 0.000473
solubility (mole fraction) (in n-propanol, 318.2 K): 0.000564
solubility (mole fraction) (in n-propanol, 328.2 K): 0.000677
solubility (mole fraction) (in water, 288.2 K): 7e-07
solubility (mole fraction) (in water, 298.2 K): 1.03e-06
solubility (mole fraction) (in water, 308.2 K): 1.57e-06
solubility (mole fraction) (in water, 318.2 K): 2.11e-06
solubility (mole fraction) (in water, 328.2 K): 2.81e-06
